Measured values: patent US20070275969A1, “NANOPARTICLES FOR ORAL ADMINISTRATION OF PHARMACEUTICAL AGENTS OF LOW SOLUBILITY” (priority 1995, published 2007)

Columns and labels:
[1] = half-life in in-vivo pharmaceutical models (mouse); conditions: some in-vivo pharmaceutical models (mouse)
Experimental: (§1) Since then several types of HIV-1 protease inhibitors have become known. […] The latter effect is presently attributed to the extremely low aqueous solubility (8 mg/1000 ml at pH 7.4).

oral bioavailability = conditions: in vivo
Experimental: as §1

[2] = aqueous solubility of the active agent; type: physicochemical; conditions: pH 7.4
Experimental: as §1

COc1ccc(C[C@H](C[C@H](O)[C@H](Cc2ccccc2)NC(=O)OC(C)(C)C)C(=O)N[C@H](C(=O)N[C@@H](Cc2ccccc2)C(=O)N2CCOCC2)C(C)C)cc1 [HIV-1 protease inhibitor (A), 5(S)-tert.-Butoxycarbonyl-amino-4(S)-hydroxy-2(R)-4-methoxyphenylmethyl-6-phenyl-hexanoyl-(L)-Val-(L)-Phe-morpholin-4-ylamide]
half-life [1]: relatively short half-life | oral bioavailability (oral bioavailability): insufficient oral bioavailability | aqueous solubility [2]: 8 mg/1000 ml
